Our source for the IC50 values is US20190135793A1, “HETEROCYCLIC INHIBITORS OF KDM5 FOR THE TREATMENT OF DISEASE” (Board of Regents, The University of Texas System, priority 2017, published 2019).

The target of one test is T1, KDM4C (Homo sapiens, UniProt Q9H3R0).
T1 construct: Full length of KDM5B and KDM4C protein were purchased from Active Motif; purchased Active Motif 31858
T1 sequence (Q9H3R0 1-1056): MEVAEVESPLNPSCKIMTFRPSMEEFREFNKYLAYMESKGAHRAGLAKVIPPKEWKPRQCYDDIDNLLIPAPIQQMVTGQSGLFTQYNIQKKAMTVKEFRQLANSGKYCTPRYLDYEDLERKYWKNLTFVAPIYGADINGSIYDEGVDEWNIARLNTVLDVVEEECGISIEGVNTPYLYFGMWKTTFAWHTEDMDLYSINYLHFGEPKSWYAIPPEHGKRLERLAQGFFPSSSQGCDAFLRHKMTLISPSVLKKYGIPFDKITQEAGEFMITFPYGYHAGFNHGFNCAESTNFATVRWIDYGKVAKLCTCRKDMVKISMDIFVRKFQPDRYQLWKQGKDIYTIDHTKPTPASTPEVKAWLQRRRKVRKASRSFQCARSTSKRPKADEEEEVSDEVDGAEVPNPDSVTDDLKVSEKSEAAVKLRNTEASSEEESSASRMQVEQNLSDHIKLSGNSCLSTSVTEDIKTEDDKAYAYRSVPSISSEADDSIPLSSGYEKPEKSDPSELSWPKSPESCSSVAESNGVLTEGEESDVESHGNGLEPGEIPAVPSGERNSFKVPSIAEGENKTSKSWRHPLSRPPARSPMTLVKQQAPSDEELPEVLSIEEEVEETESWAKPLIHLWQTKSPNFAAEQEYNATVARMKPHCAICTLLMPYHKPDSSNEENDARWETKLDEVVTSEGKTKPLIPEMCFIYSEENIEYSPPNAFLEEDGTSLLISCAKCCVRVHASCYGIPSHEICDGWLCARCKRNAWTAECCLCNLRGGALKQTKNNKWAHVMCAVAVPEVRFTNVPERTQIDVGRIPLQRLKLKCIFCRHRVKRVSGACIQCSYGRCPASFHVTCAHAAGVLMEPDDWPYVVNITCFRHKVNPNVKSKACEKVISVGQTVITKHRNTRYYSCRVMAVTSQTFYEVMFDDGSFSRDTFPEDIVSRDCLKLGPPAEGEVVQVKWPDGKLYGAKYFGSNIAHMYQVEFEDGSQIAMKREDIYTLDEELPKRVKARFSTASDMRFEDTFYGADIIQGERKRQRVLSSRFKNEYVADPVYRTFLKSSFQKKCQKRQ
Put plainly: KDM4C AlphaScreen assay. It is filed as biochemical. The settings on record: AlphaScreen; full length KDM4C 0.2 nM; biotinylated H3K9Me3 peptide 3 nM; 30 minutes at room temperature. As to the method: (§1) KDM4C and KDM5B AlphaScreen Assay Material and Method
(§2) Compounds disclosed herein were (and can be) screened using the following assay.
Peptides used in all experiments were purchased from Anaspe. Full length of KDM5B and KDM4C protein were purchased from Active Motif: KDM5B (cat#31832) and KDM4C (Cat #31858). Final concentration of KDM5B and KDM4C used in the assay were 0.5 nM and 0.2 nM. Final concentration of peptides for 5B and 4C used in the assay were 3 nM.
AlphaScreen assays was conducted as following protocol: buffer used to make compound plate or DMSO is composed of 50 mM HEPES pH 7.4, 0.003% Tween-20; buffer used to dilute enzyme is composed of 50 mM HEPES pH 7.4, 0.003% Tween-20, 0.01% BSA, 500 μM TCEP; and buffer used to dilute the substrate is composed of 50 mM HEPES pH 7.4, 0.003% Tween-20, (NH4)2Fe(SO4)2 15 μM, alpha-ketoglutaric acid 4 μM and L-ascorbic acid 100 μM. 4 μL of KDM5B or KDM4C protein were added to 384-well OptiPlate by using multiflow, followed by 4 μl of either buffer or compound. Plates were sealed, spun down and incubated at RT for 15 min. 4 μl of biotinylated peptide was added to the plate, the plate was incubated at room temperature for 25 minutes (KDM5B) and 30 minutes (KDM4C) after sealed and spun down. Streptavidin donor beads and acceptor beads were diluted and mixed in the detection buffer with 7.5 mM EDTA, followed by adding 8 μl of acceptor and donor beads mix to the plate, before the plate was sealed and incubated at room temperature for 3 h or overnight at dark. The plate was read on Envision plate reader (PerkinElmer) using Alphascreen protocol. IC50s were calculated in GraphPad Prism 6.
In general terms: Alpha assays give light when donor and acceptor beads are brought close together.

In a further test the target is T2, KDM5B (Homo sapiens, UniProt Q9UGL1).
T2 construct: Full length of KDM5B and KDM4C protein were purchased from Active Motif; purchased Active Motif 31832
The experiment in a line: biochemical. As for the experimental part:
as §1, §2
Peptides used in all experiments were purchased from Anaspe. […] Final concentration of KDM5B and KDM4C used in the assay were 0.5 nM and 0.2 nM. Final concentration of peptides for 5B and 4C used in the assay were 3 nM.
4 μL of KDM5B or KDM4C protein were added to 384-well OptiPlate by using multiflow, followed by 4 μl of either buffer or compound. Plates were sealed, spun down and incubated at RT for 15 min. 4 μl of biotinylated peptide was added to the plate, the plate was incubated at room temperature for 25 minutes (KDM5B) and 30 minutes (KDM4C) after sealed and spun down. Streptavidin donor beads and acceptor beads were diluted and mixed in the detection buffer with 7.5 mM EDTA, followed by adding 8 μl of acceptor and donor beads mix to the plate, before the plate was sealed and incubated at room temperature for 3 h or overnight at dark. The plate was read on Envision plate reader (PerkinElmer) using Alphascreen protocol. IC50s were calculated in GraphPad Prism 6.

The mark [1] stands for this setting: AlphaScreen, full length KDM5B 0.5 nM, biotinylated H3K4Me3 peptide 3 nM, 25 minutes at room temperature, read-out: KDM5B (IC50).

Structures are written as SMILES. Like-named read-outs stand apart in the source and are kept apart here.

For orientation: IC50 means the midpoint of a concentration-inhibition curve.

T2 sequence (Q9UGL1 whole entry): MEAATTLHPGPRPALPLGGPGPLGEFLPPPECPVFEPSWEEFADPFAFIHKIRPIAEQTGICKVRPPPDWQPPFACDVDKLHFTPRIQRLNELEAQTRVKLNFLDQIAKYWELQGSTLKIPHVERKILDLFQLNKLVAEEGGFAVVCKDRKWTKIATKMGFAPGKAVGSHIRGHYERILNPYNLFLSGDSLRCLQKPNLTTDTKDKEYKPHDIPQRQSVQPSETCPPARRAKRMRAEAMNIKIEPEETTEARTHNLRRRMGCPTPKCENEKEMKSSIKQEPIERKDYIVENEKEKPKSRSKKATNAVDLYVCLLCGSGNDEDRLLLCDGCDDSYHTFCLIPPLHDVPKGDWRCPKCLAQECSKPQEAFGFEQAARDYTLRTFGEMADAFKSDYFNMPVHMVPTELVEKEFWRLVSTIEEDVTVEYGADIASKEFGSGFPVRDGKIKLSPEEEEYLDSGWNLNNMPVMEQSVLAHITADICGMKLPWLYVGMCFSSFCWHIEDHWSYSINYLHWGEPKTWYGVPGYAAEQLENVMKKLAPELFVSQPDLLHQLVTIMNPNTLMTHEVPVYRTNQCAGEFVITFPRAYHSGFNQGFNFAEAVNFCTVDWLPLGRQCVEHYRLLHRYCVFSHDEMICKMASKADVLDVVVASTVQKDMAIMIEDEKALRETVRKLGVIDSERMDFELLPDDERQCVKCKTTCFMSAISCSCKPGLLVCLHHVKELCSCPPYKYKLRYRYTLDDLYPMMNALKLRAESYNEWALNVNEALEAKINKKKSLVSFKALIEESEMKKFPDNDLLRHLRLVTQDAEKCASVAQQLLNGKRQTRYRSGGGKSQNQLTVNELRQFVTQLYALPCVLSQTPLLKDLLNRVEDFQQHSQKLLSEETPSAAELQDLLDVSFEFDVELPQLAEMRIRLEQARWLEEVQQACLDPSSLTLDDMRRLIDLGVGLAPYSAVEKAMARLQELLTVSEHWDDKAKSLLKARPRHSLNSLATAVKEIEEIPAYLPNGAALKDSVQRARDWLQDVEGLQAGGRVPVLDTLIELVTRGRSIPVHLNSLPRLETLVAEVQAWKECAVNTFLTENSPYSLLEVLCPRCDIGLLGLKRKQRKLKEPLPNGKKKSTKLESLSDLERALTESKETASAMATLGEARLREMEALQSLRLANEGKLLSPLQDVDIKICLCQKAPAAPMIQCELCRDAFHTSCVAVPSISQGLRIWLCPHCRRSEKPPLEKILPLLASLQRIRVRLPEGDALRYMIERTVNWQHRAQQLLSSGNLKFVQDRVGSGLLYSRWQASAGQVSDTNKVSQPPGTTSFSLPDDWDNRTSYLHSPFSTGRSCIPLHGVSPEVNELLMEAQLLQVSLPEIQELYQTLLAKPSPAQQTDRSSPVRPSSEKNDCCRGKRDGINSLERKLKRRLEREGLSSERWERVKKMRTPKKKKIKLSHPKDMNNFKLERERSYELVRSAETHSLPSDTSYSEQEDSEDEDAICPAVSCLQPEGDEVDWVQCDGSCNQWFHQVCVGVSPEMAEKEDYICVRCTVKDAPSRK

On to `CC(C)c1c(O)nc(-n2ccnc2)nc1OCc1ccncn1` [Example 136, 2-(1H-Imidazol-1-yl)-5-(propan-2-yl)-6-(pyrimidin-4-ylmethoxy)pyrimidin-4-ol], for which the results for the IC50 against KDM4C and on KDM5B were 2410 nM and 55 nM, respectively.

Regarding `CC(=O)N1CCN(CCOc2nc(-n3ccnc3)nc(O)c2C(C)C)CC1` [Example 125, 1-[4-(2-{[6-Hydroxy-2-(1H-imidazol-1-yl)-5-(propan-2-yl)pyrimidin-4-yl]oxy}ethyl)-piperazin-1-yl]ethan-1-one], the half-inhibitory concentration (IC50) against KDM4C is 2320 nM; at KDM5B (setting [1]), 14 nM.

Regarding `CC(C)CCn1cc(-c2nc(-n3ccnc3)nc(O)c2C(C)C)cn1` [Example 73, 2-(1H-Imidazol-1-yl)-6-[1-(3-methylbutyl)-1H-pyrazol-4-yl]-5-(propan-2-yl)pyrimidin-4-ol], the 50% inhibitory concentration (IC50) was 1350 nM against KDM4C and 25 nM against KDM5B.

Consider `CC(C)c1c(O)nc(-n2ccnc2)nc1-c1cnn(CC(=O)NCCN(C)CC(F)(F)F)c1` [Example 116, 2-{4-[6-Hydroxy-2-(1H-imidazol-1-yl)-5-(propan-2-yl)pyrimidin-4-yl]-1H-pyrazol-1-yl}-N-{2-[methyl-(2,2,2-trifluoroethyl)amino]-ethyl}acetamide], for which the concentration for half-maximal inhibition (IC50) is 2250 nM against KDM4C and 30 nM against KDM5B.

Regarding `CC(C)c1c(O)nc(-n2ccnc2)nc1-c1cnn(CC(=O)NCCN2CCCC2=O)c1` [Example 109, 2-{4-[6-Hydroxy-2-(1H-imidazol-1-yl)-5-(propan-2-yl)pyrimidin-4-yl]-1H-pyrazol-1-yl}-N-[2-(2-oxo-pyrrolidin-1-yl)ethyl]-acetamide], the results for the IC50 on KDM4C and on KDM5B (setting [1]) were 1540 nM and 20 nM, respectively.

In the case of `CC(C)c1c(O)nc(-n2ccnc2)nc1-c1cnn(-c2ccccc2)c1` [Example 71, 2-(1H-Imidazol-1-yl)-6-(1-phenyl-1H-pyrazol-4-yl)-5-(propan-2-yl)pyrimidin-4-ol], the values for the IC50 at KDM4C and on KDM5B were 1560 nM and 24 nM, respectively.

Regarding `CC(C)c1c(O)nc(-n2ccnc2)nc1-c1cccnc1` [Example 70, 2-(1H-Imidazol-1-yl)-5-(propan-2-yl)-6-(pyridin-3-yl)pyrimidin-4-ol], the IC50 against KDM4C was 2660 nM; at KDM5B it was 22 nM.

For `CC(C)c1c(O)nc(-c2cncs2)nc1OCc1cccnc1` [Example 19, 5-(propan-2-yl)-6-(pyridin-3-ylmethoxy)-2-(1,3-thiazol-5-yl)pyrimidin-4-ol], the concentration for half-maximal inhibition (IC50) at KDM4C was 1790 nM; on KDM5B, 91 nM.

As for `CC(C)c1c(O)nc(-n2ccnc2)nc1OCCC1CCOCC1` [Example 131, 2-(1H-Imidazol-1-yl)-6-[2-(oxan-4-yl)ethoxy]-5-(propan-2-yl)pyrimidin-4-ol], the concentration for half-maximal inhibition (IC50) is 2090 nM on KDM4C and 27 nM against KDM5B.

Take `CC(C)c1c(O)nc(-n2ccnc2)nc1OCCC1CCN(C)CC1` [Example 11, 2-(1H-imidazol-1-yl)-6-[2-(1-methylpiperidin-4-yl)ethoxy]-5-(propan-2-yl)pyrimidin-4-ol]: the 50% inhibitory concentration (IC50) stood at 1210 nM on KDM4C and 7 nM on KDM5B.

Regarding `Oc1nc(-c2cncs2)ncc1C(F)(F)F` [Example 33, 2-(1,3-Thiazol-5-yl)-5-(trifluoromethyl)pyrimidin-4-ol], the figures for the half-inhibitory concentration (IC50) against KDM4C and against KDM5B were 3640 nM and 2530 nM, respectively.

Take `COC(=O)COc1nc(-n2ccnc2)nc(O)c1C(C)C` [Example 133, Methyl 2-{[6-hydroxy-2-(1H-imidazol-1-yl)-5-(propan-2-yl)pyrimidin-4-yl]oxy}acetate]: the IC50 is 1330 nM against KDM4C and 30 nM on KDM5B.

`CC(C)c1c(O)nc(-n2ccnc2)nc1-c1ccc(CO)cc1` [Example 58, 6-[4-(Hydroxymethyl)-phenyl]-2-(1H-imidazol-1-yl)-5-(propan-2-yl)pyrimidin-4-ol]: the values for the IC50 at KDM4C and against KDM5B were 1220 nM and 16 nM, respectively.

Take `CC(C)c1c(O)nc(-n2ccnc2)nc1OCC1CCOCC1` [Example 139, 2-(1H-Imidazol-1-yl)-6-(oxan-4-ylmethoxy)-5-(propan-2-yl)pyrimidin-4-ol]: the IC50 against KDM4C worked out at 3680 nM; on KDM5B (setting [1]), 75 nM.

Turning to `Cc1nc(-n2ccnc2C)nc(O)c1C(C)C` [Example 148, 6-Methyl-2-(2-methyl-1H-imidazol-1-yl)-5-(propan-2-yl)pyrimidin-4-ol], the half-inhibitory concentration (IC50) against KDM4C is 9460 nM; on KDM5B, 480 nM.

As to `CNCCN(C)C(=O)Cn1cc(-c2nc(-n3ccnc3)nc(O)c2C(C)C)cn1` [Example 95, 2-{4-[6-Hydroxy-2-(1H-imidazol-1-yl)-5-(propan-2-yl)pyrimidin-4-yl]-1H-pyrazol-1-yl}-N-methyl-N-[2-(methylamino)ethyl]-acetamide], the IC50 against KDM4C amounted to 278 nM; against KDM5B, 6 nM.

Regarding `CC(C)c1c(O)nc(-n2ccnc2)nc1-c1cnn(CC(=O)NCCCCN(C)C)c1` [Example 93, N-[4-(Dimethylamino)butyl]-2-{4-[6-hydroxy-2-(1H-imidazol-1-yl)-5-(propan-2-yl)pyrimidin-4-yl]-1H-pyrazol-1-yl}acetamide], the IC50 is 477 nM against KDM4C and 6 nM at KDM5B.

Consider `CC(C)c1c(O)nc(-c2cncs2)nc1OCc1ccccn1` [Example 145, 5-(Propan-2-yl)-6-(pyridin-2-ylmethoxy)-2-(1,3-thiazol-5-yl)pyrimidin-4-ol], for which the 50% inhibitory concentration (IC50) against KDM4C stood at 21000 nM; against KDM5B, 163 nM.

Regarding `CC(C)c1c(O)nc(-n2ccnc2)nc1-c1ccc(C(=O)NCC(=O)O)cc1` [Example 85, 2-({4-[6-Hydroxy-2-(1H-imidazol-1-yl)-5-(propan-2-yl)pyrimidin-4-yl]phenyl}-formamido)acetic acid], the half-maximal inhibitory concentration (IC50) against KDM4C is 9710 nM; against KDM5B, 240 nM.

`CC(C)c1c(O)nc(-n2ccnc2)nc1-c1cnn(CC(=O)N2CCN(C)CC2)c1` [Example 99, 2-{4-[6-Hydroxy-2-(1H-imidazol-1-yl)-5-(propan-2-yl)pyrimidin-4-yl]-1H-pyrazol-1-yl}-1-(4-methyl-piperazin-1-yl)ethan-1-one]: the IC50 at KDM4C was determined as 455 nM; on KDM5B (setting [1]), 10 nM.

On to `CC(C)c1c(O)nc(-n2ccnc2)nc1OCC1COCCN1` (centres unmarked) [Example 126, 2-(1H-Imidazol-1-yl)-6-(morpholin-3-ylmethoxy)-5-(propan-2-yl)pyrimidin-4-ol], for which the half-inhibitory concentration (IC50) against KDM4C was determined as 840 nM; against KDM5B, 15 nM.

On to `Cc1nc(-c2ccncc2)nc(O)c1C(C)C` [Example 149, 6-Methyl-5-(propan-2-yl)-2-(pyridin-4-yl)pyrimidin-4-ol], for which the IC50 is 50000 nM against KDM4C and 3320 nM on KDM5B.
